Source: paper PMC7029851, “Antibacterial activity of novel dual bacterial DNA type II topoisomerase inhibitors” (PLoS ONE, 2020)
Read-outs that look alike come from different tables or passages of the source.

What was measured:
[1] = test system: S. aureus ATCC 29213; assay type: cell-based, Staphylococcus aureus
[2] = target: CYP2C19 (Homo sapiens, UniProt P33261); experiment: Inhibition of P450 isoenzymes; assay type: in vitro ADME
From the text: (§1) Inhibition of P450 isoenzymes.

[3] = test system: CYP1A, CYP2B6, CYP2C8, CYP2C9, CYP2D6 and CYP3A4; experiment: Inhibition of P450 isoenzymes; assay type: in vitro ADME; conditions: human, read-out: % inhibition of CYP450 isoenzymes other than CYP2C19
From the text: as §1

[4] = test system: S. aureus ATCC 29213; experiment: Time-kill assay; assay type: cell-based, Staphylococcus aureus; conditions: for Bactericidal activity in time-kill (reduction of 3 log10 CFU/ml): 1× to 4× MIC (compound 1 also 8× and 16× MIC), over 24 hours
Protocol: (§2) Time-kill experiments were performed according to the procedure reported by Knapp. […] A drug-free control was included in each experiment. The bacterial cultures were standardized to obtain an initial inoculum that ranged from 5×10^5 to 5×10^6 CFU/ml. The cultures were incubated at 37°C in a shaking bath. At 0, 2, 4, 8 and 24-hour intervals, viable counts were performed by spotting (in triplicate) 10 μl aliquots of suitable dilutions of the cultures onto Mueller-Hinton agar (MHA, Oxoid, Basingstoke, UK) plates. After incubation at 37°C for 24 hours, the bactericidal activity, namely, the ability to reduce the initial inoculum by 3 log10 CFU/ml, was assessed for each tested concentration over time.

[5] = test system: S. aureus ATCC BAA-1720; experiment: Time-kill assay; assay type: cell-based, Staphylococcus aureus; conditions: for Bactericidal activity in time-kill (reduction of 3 log10 CFU/ml): 1× to 4× MIC, over 24 hours
Protocol: as §2

CYP2C19, sequence (P33261 whole entry): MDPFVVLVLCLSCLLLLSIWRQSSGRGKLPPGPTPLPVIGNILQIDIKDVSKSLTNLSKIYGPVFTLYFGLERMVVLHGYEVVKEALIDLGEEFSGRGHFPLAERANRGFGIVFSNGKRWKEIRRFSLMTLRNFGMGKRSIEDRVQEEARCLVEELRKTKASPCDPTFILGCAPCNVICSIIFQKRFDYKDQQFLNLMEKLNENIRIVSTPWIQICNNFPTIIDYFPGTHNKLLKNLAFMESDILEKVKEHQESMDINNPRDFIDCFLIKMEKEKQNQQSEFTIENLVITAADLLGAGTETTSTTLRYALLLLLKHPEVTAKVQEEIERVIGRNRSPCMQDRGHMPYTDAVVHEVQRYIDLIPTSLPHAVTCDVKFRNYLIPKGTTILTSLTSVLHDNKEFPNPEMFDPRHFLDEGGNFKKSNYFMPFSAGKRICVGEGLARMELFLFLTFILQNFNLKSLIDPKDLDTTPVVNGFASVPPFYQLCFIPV

SMILES | In vitro frequency of resistant mutants ([1]; S. aureus ATCC 29213, 2×MIC) | In vitro frequency of resistant mutants ([1]; S. aureus ATCC 29213, 4×MIC) | inhibition at 10 µM [2] [%] | inhibition at 10 µM [3] [%] | Bactericidal activity in time-kill (reduction of 3 log10 CFU/ml) [4] | Bactericidal activity in time-kill ([4]; 8× and 16× MIC, after 24 hour incubation) | Bactericidal activity in time-kill ([4]; concentrations up to 4× MIC) | Bactericidal activity in time-kill (reduction of 3 log10 CFU/ml) [5] | Concentration with bactericidal activity in time-kill ([5]; 4× MIC, after a 24 hour incubation) [µg/mL]
O=C1COc2ncc(F)cc2N1[C@H]1CC[C@H](NCc2cc3c(=O)oc4ccc(F)cc4c3[nH]2)CC1 [Compound 1, 8-fluoro-2-({[trans-4-(7-fluoro-2-oxo-2,3-dihydro-1H-pyrido[2,3-b][1,4]oxazin-1-yl)cyclohexyl]amino}methyl)[1]benzopyrano[4,3-b]pyrrol-4(1H)-one] | TNTC | 1.4×10^−7 | 52 | ≤ 35 | bactericidal effect | effective | no bactericidal activity | bactericidal effect | 2
Cl.N#Cc1ccc2ccc(=O)n([C@H]3CC[C@H](NCc4cc5c(=O)oc6ccc(F)cc6c5[nH]4)CC3)c2c1 [Compound 2, 1-(trans-4-{[(8-fluoro-4-oxo-1,4-dihydro[1]benzopyrano[4,3-b]pyrrol-2-yl)methyl]amino}cyclohexyl)-2-oxo-1,2-dihydroquinoline-7-carbonitrile hydrochloride] | 6.7×10^−7 | – | 69 | ≤ 35 | no bactericidal activity | – | – | no bactericidal activity | –
